This note sets out measurements from ChEMBL document CHEMBL1201862, “PubChem BioAssay data set” (2004).

Test systems include SK-MEL-5; SF-295; KM12; K562; TK-10; NCI-H23; KM-20L2; SK-OV-3; EKVX; SNB-19; NCI-H226; SW-620; UO-31; SNB-78; SR.
What all share (test): NCI-60 cell line screen, 48 h

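A five-concentration, 48-hour dose response in 96-well plates underlies each endpoint, interpolated linearly between surrounding concentrations. The concentration for 50% growth inhibition is given as GI50.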 Calls of active or inactive are those of the source. Rule as the data show it: active = GI50 up to about 1.1 µM and inactive = higher.

For the compound `Cc1ccccc1-c1c(N)nc(NC#N)nc1C(=O)Nc1ccccc1`, the GI50 in the test with SK-MEL-5, in the test on SF-295, in the test on KM12, in the test on K562, with TK-10 and with NCI-H23 was > 100 µM (inactive) in each case. In addition, the GI50 with KM-20L2, with SK-OV-3, in the test with EKVX, in the test on SNB-19, in the test with NCI-H226 and with SW-620 was > 100 µM (inactive) throughout. The GI50 with UO-31, with SNB-78 and in the test on SR was > 100 µM (inactive) in each case.
Take `NC(CCCC(N)P(=O)(O)c1ccccc1)P(=O)(O)c1ccccc1` (stereo unspecified): the GI50 in the test on SF-295, with KM12, with K562, in the test on TK-10, in the test with NCI-H23 and with KM-20L2 was > 261 µM (inactive) each time. For the same compound, the GI50 in the test with SK-OV-3, with EKVX, in the test on SNB-19, in the test on NCI-H226, in the test on SW-620 and in the test on UO-31 was > 261 µM (inactive) in each case. Moreover, the GI50 in the test on SNB-78 and in the test with SR was > 261 µM (inactive) in each case.
Take `COc1ccc(NC(=O)CC(=O)N/N=C/c2ccc(N(CCC#N)S(C)(=O)=O)cc2)cc1`: the GI50 with SK-MEL-5, with SF-295, in the test with KM12, with K562, in the test with TK-10 and in the test on NCI-H23 was > 100 µM (inactive) in each case. Moreover, the GI50 in the test with KM-20L2, in the test with SK-OV-3, in the test with EKVX, in the test with NCI-H226, in the test on SW-620 and with UO-31 was > 100 µM (inactive) throughout. The GI50 in the test with SNB-78 is > 100 µM (inactive); in the test with SR it was 3.33 µM (inactive).
As to `CCc1c(-c2coc(CC/C(C)=C/c3ccccc3)n2)oc(OC)c(C)c1=O`, the GI50 is 4.12 µM (inactive) in the test on SK-MEL-5; 1.77 µM (inactive) in the test with SF-295; 78.9 µM (inactive) with KM12; 0.122 µM (active) in the test on K562; > 100 µM (inactive) in the test with TK-10; 28.5 µM (inactive) with KM-20L2. In addition, the GI50 was 32.7 µM (inactive) in the test on SK-OV-3; 25.4 µM (inactive) with EKVX; 23.1 µM (inactive) in the test on SNB-19; 68.2 µM (inactive) with NCI-H226; 9.25 µM (inactive) with SW-620; 5.35 µM (inactive) with UO-31. For the same compound, the GI50 in the test on SNB-78 was 53.3 µM (inactive); in the test with SR, < 0.01 µM (active).
`C=CC1(C)CCC(C(C)C(=O)C(C=C(C)C)OC(C)=O)C12C(=O)Oc1ccccc1C2=O` (stereo unspecified): the GI50 with SF-295 was 47.9 µM (inactive); in the test with KM12, 44.8 µM (inactive); in the test with K562 it was 31.6 µM (inactive); in the test with TK-10, > 100 µM (inactive); with NCI-H23 it was 46.7 µM (inactive); in the test on KM-20L2 it was 51.3 µM (inactive). Further, the GI50 in the test with SK-OV-3 is 82.2 µM (inactive); with EKVX it was 60.8 µM (inactive); in the test on SNB-19, > 100 µM (inactive); in the test with NCI-H226, 58.5 µM (inactive); in the test with SW-620 it was 63.8 µM (inactive); in the test with UO-31 it was 34.4 µM (inactive). Further, the GI50 with SNB-78 is 79.4 µM (inactive); in the test on SR it was 33.6 µM (inactive).
